Where “and” joins values, the source holds several entries; their conditions need not be identical. Equal values may be shown once.
Tests used:
[1] = Emission and photophysical properties; assay type: physicochemical; conditions: H2O:DMSO (99:1), 25 °C, nitrogen atmosphere; for λem: λex 405 nm (Ir) or 450 nm (Ru)
Procedure: The emission spectra of the metal complexes in deoxygenated solutions of H2O:DMSO (99:1, v:v, 10^–5 M) were recorded at 25 °C, using λex of 405 nm for Ir-Me/Ir-H and λex of 450 nm for Ru-Me/Ru-H (Figure 3). […] Moreover, Ir-Me/Ru-Me featured lower emission intensities compared to Ir-H/Ru-H, respectively.
The excited state lifetimes (τ) and the photoluminescence quantum yields were also determined for the new metal complexes (Table 2). […] These values compare well with those of similar complexes and are compatible with a triplet nature for the emissive states. The photoluminescence quantum yields (ΦPL) of Ir(III)/Ru(II) were very low with values ranging from 1.1 to 4.13%.
All synthetic manipulations for Ir(III) and Ru(II) complexes were carried out under an atmosphere of dry, oxygen-free nitrogen using standard Schlenk techniques. The solvents were dried and distilled under a nitrogen atmosphere before use. Elemental analyses were performed with a Thermo Fisher Scientific EA Flash 2000 Elemental Microanalyzer. UV–vis absorption was measured in a Jasco V-750 UV–visible spectrophotometer. Fluorescence steady-state and lifetime measurements were performed in an FLS980 (Edinburgh Instruments) fluorimeter with Xenon Arc Lamp 450 W and TCSPC laser, respectively. Photoluminescence quantum yields was determined by using FLS980 (Edinburgh Instruments) with Xenon Arc Lamp 450 W and Red PMT Sphere as a detector. HR-ESI(+) mass spectra were recorded with an Agilent LC-MS system (1260 Infinity LC/6545 Q-TOF MS spectrometer) using dichloromethane (DCM) as a sample solvent and H2O (0.1% formic acid)/MeOH (0.1% formic acid) and 30:70 as the mobile phase. The experimental m/z values are expressed in Da and were compared with the m/z values for monoisotopic fragments. […] Chemical shift values (δ) are reported in ppm and coupling constants (J) in hertz. The splitting of proton resonances in the reported ^1H NMR data is defined as s = singlet, d = doublet, t = triplet, q = quartet, m = multiplet, and bs = broad singlet. 2D NMR spectra were recorded using standard pulse sequences. All NMR data processing was carried out using MestReNova version 10.0.2. […]
an integrating sphere. For the determination of the luminescence lifetime, the fluorescence decay was measured on a FLS980 spectrofluorometer equipped with a TSCPC laser (Ir(III) complexes: λ ex = 405 nm; Ru(II) complexes: λ ex = 450 nm) and a REDPMT detector. The F980 spectrometer operating software was used to collect and process luminescence lifetime data. […]
Photocatalytic oxidation of NADH. […]
A decrease in the absorption band with maxima at 338 nm was considered to confirm the photocatalytic oxidation of NADH into NAD+. […]
Both phases were then separated. Next, approximately 0.1 mg of the corresponding photosensitizer was dissolved in 1 mL of PBS-saturated n-octanol. Subsequently, 1 mL of octanol-saturated PBS was added, and the mixture was stirred vigorously at room temperature for 24 h. The two layers were separated carefully, and the absorbance of each layer was determined at the respective local maximum located around 425 nm. The log P oct/PBS values were determined as follows: […]

[2] = n-octanol/PBS partition coefficient, shake flask; assay type: physicochemical; conditions: UV/vis
Procedure: First, the n-octanol/PBS partition coefficient values, log Poct/PBS, of the metal PSs were experimentally determined to quantify their lipophilicity (Figure S56). Indeed, the shake flask method was employed, and the metal content was measured in both phases by UV/vis spectroscopy. […]
an integrating sphere. For the determination of the luminescence lifetime, the fluorescence decay was measured on a FLS980 spectrofluorometer equipped with a TSCPC laser (Ir(III) complexes: λ ex = 405 nm; Ru(II) complexes: λ ex = 450 nm) and a REDPMT detector. The F980 spectrometer operating software was used to collect and process luminescence lifetime data.
Photostability of Ir(III) and Ru(II) complexes. The photostability of Ir(III) or Ru(II) complexes was monitored by 1H RMN. The 1.5 × 10−2 M solutions of the complexes in DMSO-d6:D2O (3:2) at 25 °C were irradiated with blue LED light (λ irr = 460 nm, 24 W) for different intervals of time. […]
Singlet oxygen generation. The capacity of Ir-Me and Ru-Me to generate singlet oxygen ( 1O2) was determined by an indirect method using 9,10-anthracenediyl-bis(methylene) dimalonic acid (ABDA) as a probe. The reaction between ABDA and 1O2 was monitored by UV-Vis and the gradual decrease of the maximum at 379 nm was used to quantify the ability of our complexes to generate 1O2. Aerated solutions of ABDA (8 × 10^-5 M) and the corresponding PS in H2O:DMSO (50:50) were irradiated with a blue LED strip (λ ir = 460 nm; 24 W) at room temperature for intervals of 5 minutes (0 min → 100 min) and UV-Vis spectra were recorded after every irradiation interval. Concentrations of PS were tuned to achieve similar values of absorbance at 460 nm (A460 nm ≈ 0.06). The singlet oxygen quantum yield (φ) was determined using Rose Bengal (RB) as standard reference (φ Δ = 0.75)6 and the following equation:7 […]
where kPS and kRB represent the decomposition rate constants of the photobleaching of ABDA determined by the slope calculated from the linear fit of ln(A 0/A) vs time. […]
Determination of Lipophilicity. […] The log P oct/PBS values were determined as follows: […]

Compound	ΦPL [1]	τ [contribution (%)], first or only component [1]	τ [contribution (%)], second component [1]	λem [1]	log Poct/PBS [2]
Cn1c2ccccc2c2ccnc(-c3ccc(/C=C/C(=O)O)cn3)c21.[Cl-].[Ir+3].[c-]1ccccc1-c1ccccn1.[c-]1ccccc1-c1ccccn1 [Ir-H]	4.13%	23 ns and 23 [51] ns	145 ns and 145 [49] ns	651 nm	1.80
COC(=O)/C=C/c1ccc(-c2nccc3c4ccccc4n(C)c23)nc1.[Cl-].[Ir+3].[c-]1ccccc1-c1ccccn1.[c-]1ccccc1-c1ccccn1 [Ir-Me]	3.50%	2 ns and 2 [20] ns	93 ns and 93 [80] ns	676 nm	2.03
Cn1c2ccccc2c2ccnc(-c3ccc(/C=C/C(=O)O)cn3)c21.[Cl-].[Cl-].[Ru+2].c1ccc(-c2ccccn2)nc1.c1ccc(-c2ccccn2)nc1 [Ru-H]	3.13%	186 ns		688 nm	−1.10

Reference: paper PMC11483813, “Bombesin-Targeted Delivery of β-Carboline-Based Ir(III) and Ru(II) Photosensitizers for a Selective Photodynamic Therapy of Prostate Cancer” (Inorganic Chemistry, 2024)
